Results taken from the supplement of paper PMC10307832.

What was measured:
Assay in all cases: relative viability (nuclei count vs DMSO), 5 days (fraction); higher = more cells survive
NCI-H1944 = test system: NCI-H1944
Method in brief: (§1)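 Each reported value is a median over duplicate plates. It expresses relative viability: treated-well nuclei count divided by vehicle-well nuclei count. Lung cancer cell lines in 1536-well plates were dosed by pin tool a day after seeding, alone with one drug or with a fixed anchor-drug dose plus five library-drug doses (not always all listed) in √10 steps, and nuclei were counted after 5 days.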

A-427 = test system: A-427
Method in brief: as §1

NCI-H2228 = test system: NCI-H2228
Method in brief: as §1

LXF-289 = test system: LXF-289
Method in brief: as §1

NCI-H596 = test system: NCI-H596
Method in brief: as §1

SW 900 = test system: SW 900
Method in brief: as §1

EMC-BAC-2 = test system: EMC-BAC-2
Method in brief: as §1

SW 1573 = test system: SW 1573
Method in brief: as §1

NCI-H1792 = test system: NCI-H1792
Method in brief: as §1

NCI-H2170 = test system: NCI-H2170
Method in brief: as §1

NCI-H3122 = test system: NCI-H3122
Method in brief: as §1

HARA = test system: HARA
Method in brief: as §1

PC-3 [JPC-3] = test system: PC-3 [JPC-3]
Method in brief: as §1

LK-2 = test system: LK-2
Method in brief: as §1

NCI-H1993 = test system: NCI-H1993
Method in brief: as §1

NCI-H1793 = test system: NCI-H1793
Method in brief: as §1

LU99A = test system: LU99A
Method in brief: as §1

NCI-H2009 = test system: NCI-H2009
Method in brief: as §1

SK-LU-1 = test system: SK-LU-1
Method in brief: as §1

SK-MES-1 = test system: SK-MES-1
Method in brief: as §1

COR-L23 = test system: COR-L23
Method in brief: as §1

HOP-62 = test system: HOP-62
Method in brief: as §1

In the case of `COc1cc(N2CCC(C(N)=O)CC2)ccc1Nc1nc(N)c(Cl)c(Nc2ccccc2S(=O)(=O)C(C)C)n1` [HG-5-88-01] + Nc1nc2[nH]cc(CCc3ccc(C(=O)N[C@@H](CCC(=O)O)C(=O)O)cc3)c2c(=O)[nH]1 [Pemetrexed] (partner 0.2 µM), the relative viability (NCI-H1944; first compound 0.04 µM) is reported as 0.642, the relative viability (NCI-H1944; first compound 0.1265 µM) is reported as 0.695 and the relative viability (NCI-H1944; first compound 0.4 µM) is reported as 0.643. It also gave a relative viability (NCI-H1944; first compound 1.265 µM) of 0.615, a relative viability (NCI-H1944; first compound 4 µM) of 0.564 and a relative viability (A-427; first compound 0.04 µM) of 0.951. For the same compound, the relative viability (A-427; first compound 0.1265 µM) was 1.01, the relative viability (A-427; first compound 0.4 µM) was 1 and the relative viability (A-427; first compound 1.265 µM) was 1.02. The relative viability (A-427; first compound 4 µM) was 0.9, the relative viability (NCI-H2228; first compound 0.04 µM) was 0.372 and the relative viability (NCI-H2228; first compound 0.1265 µM) was 0.237. It also gave a relative viability (NCI-H2228; first compound 0.4 µM) of 0.237, a relative viability (NCI-H2228; first compound 1.265 µM) of 0.26 and a relative viability (NCI-H2228; first compound 4 µM) of 0.183. It also gave a relative viability (LXF-289; first compound 0.04 µM) of 0.931, a relative viability (LXF-289; first compound 0.1265 µM) of 0.933 and a relative viability (LXF-289; first compound 0.4 µM) of 0.887. It also gave a relative viability (LXF-289; first compound 1.265 µM) of 0.93, a relative viability (LXF-289; first compound 4 µM) of 0.926 and a relative viability (NCI-H596; first compound 0.04 µM) of 0.499. The relative viability (NCI-H596; first compound 0.1265 µM) was 0.548, the relative viability (NCI-H596; first compound 0.4 µM) was 0.478 and the relative viability (NCI-H596; first compound 1.265 µM) was 0.482. It also gave a relative viability (NCI-H596; first compound 4 µM) of 0.441, a relative viability (SW 900; first compound 0.04 µM) of 0.504 and a relative viability (SW 900; first compound 0.1265 µM) of 0.512. It also gave a relative viability (SW 900; first compound 0.4 µM) of 0.46, a relative viability (SW 900; first compound 1.265 µM) of 0.477 and a relative viability (SW 900; first compound 4 µM) of 0.379. The relative viability (EMC-BAC-2; first compound 0.04 µM) was 0.416, the relative viability (EMC-BAC-2; first compound 0.1265 µM) was 0.432 and the relative viability (EMC-BAC-2; first compound 0.4 µM) was 0.385. The relative viability (EMC-BAC-2; first compound 1.265 µM) was 0.461, the relative viability (EMC-BAC-2; first compound 4 µM) was 0.477 and the relative viability (SW 1573; first compound 0.04 µM) was 0.871. The relative viability (SW 1573; first compound 0.1265 µM) was 0.79, the relative viability (SW 1573; first compound 0.4 µM) was 0.689 and the relative viability (SW 1573; first compound 1.265 µM) was 0.777. It also gave a relative viability (SW 1573; first compound 4 µM) of 0.823, a relative viability (NCI-H1792; first compound 0.04 µM) of 0.769 and a relative viability (NCI-H1792; first compound 0.1265 µM) of 0.825. It also gave a relative viability (NCI-H1792; first compound 0.4 µM) of 0.751, a relative viability (NCI-H1792; first compound 1.265 µM) of 0.832 and a relative viability (NCI-H1792; first compound 4 µM) of 0.76. It also gave a relative viability (NCI-H2170; first compound 0.04 µM) of 0.286, a relative viability (NCI-H2170; first compound 0.1265 µM) of 0.28 and a relative viability (NCI-H2170; first compound 0.4 µM) of 0.261. The relative viability (NCI-H2170; first compound 1.265 µM) was 0.257, the relative viability (NCI-H2170; first compound 4 µM) was 0.249 and the relative viability (NCI-H3122; first compound 0.04 µM) was 0.171. For the same compound, the relative viability (NCI-H3122; first compound 0.1265 µM) was 0.161, the relative viability (NCI-H3122; first compound 0.4 µM) was 0.144 and the relative viability (NCI-H3122; first compound 1.265 µM) was 0.157. It also gave a relative viability (NCI-H3122; first compound 4 µM) of 0.115, a relative viability (HARA; first compound 0.04 µM) of 0.221 and a relative viability (HARA; first compound 0.1265 µM) of 0.225. For the same compound, the relative viability (HARA; first compound 0.4 µM) was 0.199, the relative viability (HARA; first compound 1.265 µM) was 0.24 and the relative viability (HARA; first compound 4 µM) was 0.201. The relative viability (PC-3 [JPC-3]; first compound 0.04 µM) was 1.16, the relative viability (PC-3 [JPC-3]; first compound 0.1265 µM) was 1.1 and the relative viability (PC-3 [JPC-3]; first compound 0.4 µM) was 0.935. The relative viability (PC-3 [JPC-3]; first compound 1.265 µM) was 0.913, the relative viability (PC-3 [JPC-3]; first compound 4 µM) was 0.348 and the relative viability (LK-2; first compound 0.04 µM) was 0.159. It also gave a relative viability (LK-2; first compound 0.1265 µM) of 0.295, a relative viability (LK-2; first compound 0.4 µM) of 0.249 and a relative viability (LK-2; first compound 4 µM) of 0.202. It also gave a relative viability (NCI-H1993; first compound 0.04 µM) of 0.56, a relative viability (NCI-H1993; first compound 0.1265 µM) of 0.577 and a relative viability (NCI-H1993; first compound 0.4 µM) of 0.552. For the same compound, the relative viability (NCI-H1993; first compound 4 µM) was 0.554, the relative viability (NCI-H1793; first compound 0.04 µM) was 0.829 and the relative viability (NCI-H1793; first compound 0.1265 µM) was 0.8. The relative viability (NCI-H1793; first compound 0.4 µM) was 0.828, the relative viability (NCI-H1793; first compound 1.265 µM) was 0.692 and the relative viability (NCI-H1793; first compound 4 µM) was 0.522. It also gave a relative viability (LU99A; first compound 0.04 µM) of 0.163, a relative viability (LU99A; first compound 0.1265 µM) of 0.211 and a relative viability (LU99A; first compound 0.4 µM) of 0.165. It also gave a relative viability (LU99A; first compound 1.265 µM) of 0.193, a relative viability (LU99A; first compound 4 µM) of 0.168 and a relative viability (NCI-H2009; first compound 0.04 µM) of 1.01. For the same compound, the relative viability (NCI-H2009; first compound 0.1265 µM) was 1.03, the relative viability (NCI-H2009; first compound 0.4 µM) was 0.959 and the relative viability (NCI-H2009; first compound 1.265 µM) was 0.963. The relative viability (NCI-H2009; first compound 4 µM) was 0.975, the relative viability (SK-LU-1; first compound 0.04 µM) was 0.919 and the relative viability (SK-LU-1; first compound 0.1265 µM) was 0.956. The relative viability (SK-LU-1; first compound 0.4 µM) was 0.925, the relative viability (SK-LU-1; first compound 1.265 µM) was 1.01 and the relative viability (SK-LU-1; first compound 4 µM) was 0.866. It also gave a relative viability (SK-MES-1; first compound 0.04 µM) of 0.922, a relative viability (SK-MES-1; first compound 0.1265 µM) of 0.923 and a relative viability (SK-MES-1; first compound 0.4 µM) of 0.827. For the same compound, the relative viability (SK-MES-1; first compound 1.265 µM) was 0.853, the relative viability (SK-MES-1; first compound 4 µM) was 1 and the relative viability (COR-L23; first compound 0.04 µM) was 0.196. The relative viability (COR-L23; first compound 0.1265 µM) was 0.208, the relative viability (COR-L23; first compound 0.4 µM) was 0.184 and the relative viability (COR-L23; first compound 1.265 µM) was 0.199. The relative viability (COR-L23; first compound 4 µM) was 0.166, the relative viability (HOP-62; first compound 0.04 µM) was 0.319 and the relative viability (HOP-62; first compound 0.1265 µM) was 0.297. For the same compound, the relative viability (HOP-62; first compound 0.4 µM) was 0.288, the relative viability (HOP-62; first compound 1.265 µM) was 0.381 and the relative viability (HOP-62; first compound 4 µM) was 0.341.
